Each structure is given as a SMILES string. Like-named read-outs stand apart in the source and are kept apart here.

Assay [1] has as its target T1, Human phosphodiesterase-5 (Homo sapiens, UniProt O76074).
T1 construct: using an enzyme isolated from human platelets at Eurofins-Cerep; tissue Eurofins-Cerep; host or cells: human platelets
The experiment in a line: PDE5 (h) (non-selective) assay. Format: biochemical. As for the experimental part: The test compound (compound 72), reference compound or water (control) were added to a buffer containing 40 mM Tris/HCl (pH 7.4), 8 mM MgCl2 0.21% BSA, 0.5 μg/ml calmoduline and 0.5 mM CaCl2), 1.125 μM cGMP and 0.027 μCi [3H]cGMP. Thereafter, the reaction was initiated by addition of the enzyme (about 0.2 U) and the mixture was incubated for 20 min at 22° C. For basal control measurements, the enzyme was omitted from the reaction mixture. Following incubation SPA beads were added. After 30 min at 22° C. under shaking, the amount of [3H]5′GMP was quantified with a scintillation counter (MicroBeta, Perkin Elmer). The results were expressed as a percent inhibition of the control enzyme activity. The standard inhibitory reference compound was Nitrendipine, which was tested in each experiment at several concentrations to obtain an inhibition curve from which its IC50 value was calculated. • Human phosphodiesterase-5 quantified by measuring the formation of 5′GMP from cGMP using an enzyme isolated from human platelets at Eurofins-Cerep.
The test compound (compound 72), reference compound or water (control) were added to a buffer containing 40 mM Tris/HCl (pH 7.8), 3 mM MgCl2, 1.4 mM DTT, 0.21% BSA, 200 mM NH4Cl, 1 μM cGMP and 0.1 μCi [3H]cGMP. […] After 20 min at 22° C. under shaking, the amount of [3H]5′GMP was quantified with a scintillation counter (MicroBeta, Perkin Elmer). […]

Assay [2] deals with T2, Human phosphodiesterase-2A1 (Homo sapiens, UniProt O00408).
T2 construct: host or cells: Sf9 cells
T2 sequence (O00408 1-920 isoform O00408-2): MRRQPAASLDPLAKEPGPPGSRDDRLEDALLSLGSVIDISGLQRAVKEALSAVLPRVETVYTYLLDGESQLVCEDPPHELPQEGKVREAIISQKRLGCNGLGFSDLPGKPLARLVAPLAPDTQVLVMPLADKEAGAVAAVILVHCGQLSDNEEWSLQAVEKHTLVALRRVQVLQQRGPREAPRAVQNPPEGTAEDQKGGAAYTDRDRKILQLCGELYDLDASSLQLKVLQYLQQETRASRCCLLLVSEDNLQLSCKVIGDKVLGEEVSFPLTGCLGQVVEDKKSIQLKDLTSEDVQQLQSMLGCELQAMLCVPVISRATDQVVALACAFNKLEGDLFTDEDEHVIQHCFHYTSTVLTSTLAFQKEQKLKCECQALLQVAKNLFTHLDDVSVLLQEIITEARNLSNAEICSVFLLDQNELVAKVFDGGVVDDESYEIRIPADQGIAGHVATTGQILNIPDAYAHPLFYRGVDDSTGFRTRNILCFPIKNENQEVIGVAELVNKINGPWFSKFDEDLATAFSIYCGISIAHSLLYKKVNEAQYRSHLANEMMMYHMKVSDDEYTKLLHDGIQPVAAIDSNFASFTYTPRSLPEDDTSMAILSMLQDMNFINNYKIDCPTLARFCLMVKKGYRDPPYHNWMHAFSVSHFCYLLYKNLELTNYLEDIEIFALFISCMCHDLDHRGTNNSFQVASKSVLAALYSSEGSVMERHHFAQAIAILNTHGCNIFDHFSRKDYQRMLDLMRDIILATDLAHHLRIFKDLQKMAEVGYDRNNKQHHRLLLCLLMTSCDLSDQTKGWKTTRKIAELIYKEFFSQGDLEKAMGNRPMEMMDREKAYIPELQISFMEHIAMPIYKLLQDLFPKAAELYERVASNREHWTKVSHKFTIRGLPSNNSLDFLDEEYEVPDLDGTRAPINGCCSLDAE
The experiment in a line: PDE2A1 (h) assay. Format: biochemical. As for the experimental part:
The test compound (compound 72), reference compound or water (control) were added to a buffer containing 40 mM Tris/HCl (pH 7.8), 3 mM MgCl2, 1.4 mM DTT, 0.21% BSA, 200 mM NH4Cl, 1 μM cGMP and 0.1 μCi [3H]cGMP. Thereafter, the reaction was initiated by addition of the enzyme (final amount depending on the efficiency of the isolation) and the mixture was incubated for 60 min at 22° C. For basal control measurements, the enzyme was omitted from the reaction mixture. Following incubation SPA beads were added. After 20 min at 22° C. under shaking, the amount of [3H]5′GMP was quantified with a scintillation counter (MicroBeta, Perkin Elmer). The results were expressed as a percent inhibition of the control enzyme activity.
The test compound (compound 72), reference compound or water (control) were added to a buffer containing 40 mM Tris/HCl (pH 7.4), 8 mM MgCl2 and 1.7 mM EGTA/NaOH, 1.8 μM cAMP and 1 μCi [3H]cAMP. Thereafter, the reaction was initiated by addition of the enzyme (about 2 ng) and the mixture was incubated for 15 min at 22° C. For basal control measurements, the enzyme was omitted from the reaction mixture. Following incubation SPA beads were added. After 30 min at 22° C. under shaking, the amount of [3H]5′AMP was quantified with a scintillation counter (MicroBeta, Perkin Elmer). The results were expressed as a percent inhibition of the control enzyme activity. […]

For assay [3], the system named is stimulated primary human T cells. The experiment in a line: T cell proliferation assay (rescue of proliferation in presence of 100 uM ATP). Type of assay: cell-based. The procedure:
Purpose. The aim of this study was to determine the potency of equilibrative nucleoside transporter 1 (ENT1) inhibitors to rescue proliferation by stimulated primary human T cells incubated in the presence of 100 uM Adenosine triphosphate (ATP) with: • Condition A: X-VIVO15 • Condition B: X-VIVO15, 2% Human Serum Albumine (HSA) and 0.1% α-1-Acid Glycoprotein (AAG)
Method. Cryopreserved purified human CD3+ T cells were thawed and washed twice with RPMI1640 medium, UltraGlutamine containing 10% hiFBS.
Cells were suspended in PBS containing 10% hiFBS. Cells were stained with CFSE by adding 2 μM solution in PBS, to get a final 1 μM CFSE solution. Cells were incubated while rotating for 5 minutes. Reaction was stopped by adding PBS with 10% FBS and cells were centrifuged for 5 minutes at 1500 rpm.
Cells were resuspended at 1.6×10^6 cells/mL, either in X-VIVO15 medium or in 4% Human Serum Albumin and 0.2% α-1-Acid Glycoprotein. 50 μL of cell suspension (8×10^4 T cells) was added to wells of sterile round-bottom 96-well plates. Cells were activated by adding 50 μL of anti-CD3 anti-CD28 coated microbeads, suspended either in XVIVO-15 medium or in 4% HSA and 0.2% α-1-Acid Glycoprotein, at a ratio of one microbead per two cells.
Serial dilutions of the ENT1 inhibitors were prepared in X-VIVO15 from 10 mM stock solutions in DMSO, and 50 μL was added to the wells.
ATP powder was diluted in X-VIVO15, and 50 μL of this compound was added to the wells to reach a final assay concentration of 100 μM. Final volume of 200 μL.
The experiments were also performed in 384 well plates—all volumes reduced by a factor of 4 ([…]) with a final volume of 50 μL.
Experiments were performed in duplicate. The cells were placed in a 37° C. humidified tissue culture incubator with 5% CO2 for 72 hours for 96 well plates, 96 hours for 384 well plates. After 72 or 96 hours, proliferation was measured determined by CFSE dilution via flow cytometry.
Results. Compounds of the invention have good ENT1 inhibitory properties.

As for `COCCN(CCOC)c1nc(N2CCN(C)C(=O)C2)c2nc(N(CCOC)CCOC)nc(N3CCC(OC)CC3)c2n1` [Compound 72, 4-(2,6-bis(bis(2-methoxyethyl)amino)-8-(4-methoxypiperidin-1-yl)pyrimido[5,4-d]pyrimidin-4-yl)-1-methylpiperazin-2-one], the IC50 in assay [1] (read-out: PDE5 (h) (non-selective) IC50) is 1000 to 10000 nM; in assay [1] (read-out: PDE5 IC50), 1080 nM; in assay [2], more than 10000 nM; in assay [3] (Condition A: X-VIVO15, read-out: TCell proliferation (Condition A) IC50), 100 to 500 nM; in assay [3] (Condition B: X-VIVO15, 2% HSA and 0.1% AAG, read-out: TCell proliferation (Condition B) IC50) it was 100 to 500 nM.

For the origin of these results see patent publication US20230146675A1, “PYRIMIDO[5,4-d]PYRIMIDINE DERIVATIVES AS ENT INHIBITORS FOR THE TREATMENT OF CANCERS, AND COMBINATION THEREOF WITH ADENOSINE RECEPTOR ANTAGONISTS” (ITEOS BELGIUM SA, priority 2020, published 2023).
